Assays:
[1] = molecular target: T1, human Factor XIII (FXIII) (Homo sapiens, UniProt P00488); experiment: Inhibition of recombinant Transglutaminase activity (fluorescent substrate), human Factor XIII; type: biochemical; details: Fig 2C, read-out: IC50 to inhibit FXIII activity
T1 construct: purchased Zedira
T1 sequence (P00488 1-732): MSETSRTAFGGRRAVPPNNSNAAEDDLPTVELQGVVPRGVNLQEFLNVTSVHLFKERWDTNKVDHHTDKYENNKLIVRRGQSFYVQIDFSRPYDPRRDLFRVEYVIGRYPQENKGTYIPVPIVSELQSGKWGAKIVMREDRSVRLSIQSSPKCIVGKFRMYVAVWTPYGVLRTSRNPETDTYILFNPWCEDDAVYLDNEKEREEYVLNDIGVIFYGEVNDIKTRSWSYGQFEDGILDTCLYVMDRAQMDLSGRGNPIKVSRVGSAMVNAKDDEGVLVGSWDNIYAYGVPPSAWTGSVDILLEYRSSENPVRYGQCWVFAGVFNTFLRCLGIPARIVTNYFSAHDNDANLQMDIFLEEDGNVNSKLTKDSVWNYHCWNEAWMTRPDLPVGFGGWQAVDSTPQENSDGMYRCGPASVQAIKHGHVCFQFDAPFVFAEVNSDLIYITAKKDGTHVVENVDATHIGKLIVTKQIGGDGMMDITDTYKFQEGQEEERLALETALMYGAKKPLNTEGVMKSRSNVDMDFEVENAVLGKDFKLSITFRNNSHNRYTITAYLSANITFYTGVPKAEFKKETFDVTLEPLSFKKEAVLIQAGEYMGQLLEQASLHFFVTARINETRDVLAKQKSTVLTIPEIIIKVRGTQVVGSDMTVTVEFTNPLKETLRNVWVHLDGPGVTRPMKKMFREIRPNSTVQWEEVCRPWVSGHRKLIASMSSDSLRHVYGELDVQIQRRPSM
Method: (§1) The potency and specificity of TG2 inhibitors was assessed with various recombinant TGs, as previously described. The reaction buffer (50 mM Tris, 100 mM NaCl, 10 mM CaCl2, 5 mM H-Gly-OMe*HCl (glycinemethylestherhydrochloride, Sigma), 5 mM hexadimethinbromide (Sigma), 9.1 mM DTT, pH 7.5) was heated to 37°C in a 96 well plate. Then 50 μM of the TG substrate Abz-NE(CAD-DNP)EQVSPLTLLK-OH (Zedira) was added. 1 μg/ml recombinant TG (human TG1, human (hTG2) / mouse TG2 (mTG2) or human Factor XIII (FXIII); Zedira) were added. The two lyophilized TG2 inhibitors (see Fig 1 for chemical structure) BJJF078 (3,4-Dimethoxy-N-(5-[4-(acryloylamino)piperidine-1-sulfonyl]-naphthalen-1-yl)-benzamide, kindly provided by Dr S. El Alaoui, Covalab, France) and ERW1041E (2-[(3-Bromo-4,5-dihydro-isoxazol-5-ylmethyl)-carbamoyl]-pyrrolidine-1—carboxylic acid quinolin-3-ylmethyl ester, kindly provided by Prof C. Khosla, Stanford University, USA) were dissolved in DMSO (stock solution: 54 mM) and stored at -80°C. These stocks were further diluted and various concentrations of the TG2 inhibitors (0.3 nM to 100 μM), were added to the wells (final DMSO concentration per well: 0.06%). The relative increase in fluorescence emission, correlating with enzymatic activity, was measured over 4 h with a fluorimeter (Excitation: 320nm, emission: 405 nm; Fluostar, GMB).

human TG1 = molecular target: T2, human TG1 (Homo sapiens, UniProt P22735); experiment: Inhibition of recombinant Transglutaminase activity (fluorescent substrate), human TG1; type: biochemical; details: human recombinant TG1, Fig 2B; read-out: IC50 to inhibit TG1
T2 construct: purchased Zedira
T2 sequence (P22735 1-817): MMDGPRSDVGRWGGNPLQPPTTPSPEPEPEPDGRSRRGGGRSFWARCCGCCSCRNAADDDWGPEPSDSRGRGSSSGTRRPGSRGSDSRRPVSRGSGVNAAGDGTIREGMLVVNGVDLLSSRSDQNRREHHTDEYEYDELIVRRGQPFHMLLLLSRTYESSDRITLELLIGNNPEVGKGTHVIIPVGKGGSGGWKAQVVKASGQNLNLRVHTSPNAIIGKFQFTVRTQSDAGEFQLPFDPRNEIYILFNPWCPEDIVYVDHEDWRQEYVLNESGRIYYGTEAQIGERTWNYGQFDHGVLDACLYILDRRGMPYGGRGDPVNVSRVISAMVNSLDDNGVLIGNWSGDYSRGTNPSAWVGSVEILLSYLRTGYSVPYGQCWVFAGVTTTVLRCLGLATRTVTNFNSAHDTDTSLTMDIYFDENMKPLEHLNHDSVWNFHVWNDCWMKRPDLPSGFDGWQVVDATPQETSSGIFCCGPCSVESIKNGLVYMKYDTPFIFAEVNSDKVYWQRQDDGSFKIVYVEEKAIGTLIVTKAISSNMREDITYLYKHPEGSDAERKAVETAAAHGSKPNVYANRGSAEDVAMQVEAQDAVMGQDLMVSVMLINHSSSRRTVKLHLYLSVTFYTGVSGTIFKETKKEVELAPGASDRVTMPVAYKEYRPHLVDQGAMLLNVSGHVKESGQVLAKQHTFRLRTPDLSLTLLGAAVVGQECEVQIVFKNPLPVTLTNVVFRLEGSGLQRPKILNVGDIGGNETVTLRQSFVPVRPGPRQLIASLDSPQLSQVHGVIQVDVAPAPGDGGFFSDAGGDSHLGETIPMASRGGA
Method: as §1

IC50 [1] [µM] | IC50 (human TG1) [nM] | Structure (SMILES)
52 | 440 | O=C(NCC1CC(Br)=NO1)C1CCCN1C(=O)OCc1cnc2ccccc2c1 (stereo not shown) [ERW1041E, 2-[(3-Bromo-4,5-dihydro-isoxazol-5-ylmethyl)-carbamoyl]-pyrrolidine-1—carboxylic acid quinolin-3-ylmethyl ester]
22 | 160 | C=CC(=O)NC1CCN(S(=O)(=O)c2cccc3c(NC(=O)c4ccc(OC)c(OC)c4)cccc23)CC1 [BJJF078, 3,4-Dimethoxy-N-(5-[4-(acryloylamino)piperidine-1-sulfonyl]-naphthalen-1-yl)-benzamide]
